In test [1] the target is CDK1 (Homo sapiens, UniProt P06493). As to conditions: cited from earlier work.
For test [2], the target named is CDK7 (Homo sapiens, UniProt P50613). As to conditions: cited from earlier work.
The target in test [3] is CDK4 (Homo sapiens, UniProt P11802). Conditions: cited from earlier work.
The target of test [4] is CDK3 (Homo sapiens, UniProt Q00526). As to conditions: cited from earlier work.
The target in test [5] is CDK6 (Homo sapiens, UniProt Q00534). On the set-up: key to the marks not given beside the values. Conditions: cited from earlier work.
Test [6] addresses CDK2 (Homo sapiens, UniProt P24941). Conditions: cited from earlier work.
Test [7] concerns pseudovirus with the ancestral G614 S protein. Format: cell-based, SARS-CoV-2.
Test [8] concerns pseudovirus with the G614 S protein. Format: cell-based, SARS-CoV-2.
Test [9] concerns ERK and AKT. The class given is cell-based, human.
For test [10], the system named is ACE2. Format: cell-based, human.
Test [11] has as its target Chitinase 1 (CHIT1) (Homo sapiens, UniProt Q13231). As to conditions: cited from earlier work.
The subject of test [12] is TMPRSS2, CTSL and FURIN. The class given is cell-based, human.
In test [13] the test system is influenza and other viral infections. Conditions: cited from earlier work.
Test [14] deals with CDK9 (Homo sapiens, UniProt P50750). On the set-up: key: + is used to indicate the potency of the inhibitor; ++++ > +++ > ++ > +; + is used to indicate the potency of the inhibitor; ++++ > +++ > ++ > +; + is used to indicate the potency of the inhibitor; ++++ > +++ > ++ > +; + is used to indicate the potency of the inhibitor; ++++ > +++ > ++ > +; ◯ refers to compounds with inhibitory effects on the related isoform, but without specific value. As to conditions: cited from earlier work.

The target in test [15] is CDK8 (Homo sapiens, UniProt P49336). On the set-up: key: + is used to indicate the potency of the inhibitor; ++++ > +++ > ++ > +; + is used to indicate the potency of the inhibitor; ++++ > +++ > ++ > +; + is used to indicate the potency of the inhibitor; ++++ > +++ > ++ > +; + is used to indicate the potency of the inhibitor; ++++ > +++ > ++ > +; ◯ refers to compounds with inhibitory effects on the related isoform, but without specific value. Conditions: cited from earlier work.

Test [16] deals with pseudovirus containing the S protein (D614 and G614 variants). Format: cell-based. Conditions: Calu-3 cells, rCHI3L1 250 ng/mL 24 hours, GFP by flow cytometry. (A flow cytometer gives signals particle by particle.)
In test [17] the test system is ACE2. Kind of test: Immunocytochemical evaluation of ACE2 in Calu-3 cells. Format: cell-based, human. As to conditions: at baseline and or after the administration of rCHI3L1; ICC, FIG. 18.
The test system of test [18] is pseudoviruses with delta S proteins. The class given is cell-based, SARS-CoV-2.
Test [19] concerns the target human and mouse CHI3L1. In words: Ligand binding affinity of FRG by ELISA. As to conditions: both human and mouse CHI3L1. On the procedure: The murine monoclonal anti-CHI3L1 antibody (FRG) was generated using peptide antigen (amino acid 223-234 of human CHI3L1) as immunogen through Abmart Inc (Berkeley Heights, NJ). […] HEK-293T cells were transfected with the FRG construct using Lipofectamine™ 3000 (Invitrogen, #L3000015). Supernatant was collected for 7 days, and the antibody was purified using a protein A column (ThermoFisher scientific, #89960). Ligand binding affinity and sensitivity were assessed using ELISA techniques.
On the technique in general: In an ELISA, binding on a coated surface is turned into a signal by an enzyme label.

Where [20] appears, read: Calu-3 cells, 24 hours, FRG or KSM 250 ng/mL, RT-PCR.

The text below walks through data of patent publication US20230312752A1 (Brown University, priority 2021, published 2023).

Entries after “also recorded” stand apart in the source; their conditions may differ. Where a name gives a salt, the structure may show the parent alone. Read-outs that look alike come from different tables or passages of the source.

Chain of CDK7 (P50613 whole entry): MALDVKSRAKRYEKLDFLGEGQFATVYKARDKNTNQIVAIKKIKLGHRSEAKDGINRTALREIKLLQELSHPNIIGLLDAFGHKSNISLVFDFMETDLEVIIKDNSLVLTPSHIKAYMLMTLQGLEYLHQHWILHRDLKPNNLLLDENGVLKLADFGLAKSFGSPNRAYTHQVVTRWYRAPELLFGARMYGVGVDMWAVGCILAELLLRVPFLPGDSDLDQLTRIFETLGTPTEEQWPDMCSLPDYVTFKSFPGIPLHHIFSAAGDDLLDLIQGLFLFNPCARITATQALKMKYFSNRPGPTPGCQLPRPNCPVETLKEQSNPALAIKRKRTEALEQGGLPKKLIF
Chain of CDK7 (P51946 whole entry, further chain): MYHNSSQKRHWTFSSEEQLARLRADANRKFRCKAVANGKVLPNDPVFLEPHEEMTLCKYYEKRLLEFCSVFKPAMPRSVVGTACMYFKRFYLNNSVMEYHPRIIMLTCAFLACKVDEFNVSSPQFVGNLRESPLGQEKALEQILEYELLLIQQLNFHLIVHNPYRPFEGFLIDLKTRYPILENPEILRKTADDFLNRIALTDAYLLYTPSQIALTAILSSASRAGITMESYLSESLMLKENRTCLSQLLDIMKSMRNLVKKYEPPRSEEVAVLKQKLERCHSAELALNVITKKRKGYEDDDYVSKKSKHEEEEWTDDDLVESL
Chain of CDK7 (P51948 whole entry, further chain): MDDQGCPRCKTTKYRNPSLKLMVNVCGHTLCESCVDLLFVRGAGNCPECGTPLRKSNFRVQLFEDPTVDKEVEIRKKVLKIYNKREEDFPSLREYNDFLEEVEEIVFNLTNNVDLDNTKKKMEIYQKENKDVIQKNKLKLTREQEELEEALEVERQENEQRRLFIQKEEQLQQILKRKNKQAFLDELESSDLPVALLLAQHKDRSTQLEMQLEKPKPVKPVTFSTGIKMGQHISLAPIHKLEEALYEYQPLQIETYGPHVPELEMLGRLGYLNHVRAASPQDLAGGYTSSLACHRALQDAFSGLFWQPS
Chain of CDK6 (Q00534 whole entry): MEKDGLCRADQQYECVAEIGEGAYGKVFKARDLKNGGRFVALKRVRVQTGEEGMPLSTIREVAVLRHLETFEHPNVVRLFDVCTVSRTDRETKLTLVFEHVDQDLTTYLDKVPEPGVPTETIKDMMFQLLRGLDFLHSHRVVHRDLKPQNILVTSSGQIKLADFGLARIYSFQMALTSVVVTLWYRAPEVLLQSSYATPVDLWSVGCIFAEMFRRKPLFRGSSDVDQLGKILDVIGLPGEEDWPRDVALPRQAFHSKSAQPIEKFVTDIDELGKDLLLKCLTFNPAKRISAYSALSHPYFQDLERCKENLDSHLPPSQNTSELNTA
Chain of CDK6 (P30281 whole entry, further chain): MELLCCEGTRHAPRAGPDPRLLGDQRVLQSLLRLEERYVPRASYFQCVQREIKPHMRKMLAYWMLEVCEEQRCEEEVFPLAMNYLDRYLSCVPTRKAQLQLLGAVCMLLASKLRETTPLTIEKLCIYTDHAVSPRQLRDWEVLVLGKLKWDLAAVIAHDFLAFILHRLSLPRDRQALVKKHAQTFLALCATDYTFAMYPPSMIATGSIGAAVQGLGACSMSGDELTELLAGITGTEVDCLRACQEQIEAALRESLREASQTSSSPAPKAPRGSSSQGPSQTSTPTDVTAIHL
Chain of CDK8 (P24863 whole entry, canonical isoform): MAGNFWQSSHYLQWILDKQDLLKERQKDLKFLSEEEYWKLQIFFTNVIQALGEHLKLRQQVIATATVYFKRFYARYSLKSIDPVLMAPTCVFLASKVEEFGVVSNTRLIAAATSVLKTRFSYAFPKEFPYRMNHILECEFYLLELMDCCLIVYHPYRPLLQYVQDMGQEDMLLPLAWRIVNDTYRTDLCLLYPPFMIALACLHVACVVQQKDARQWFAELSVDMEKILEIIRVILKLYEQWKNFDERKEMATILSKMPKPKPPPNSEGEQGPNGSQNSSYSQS
Chain of CDK8 (P49336 whole entry, canonical isoform): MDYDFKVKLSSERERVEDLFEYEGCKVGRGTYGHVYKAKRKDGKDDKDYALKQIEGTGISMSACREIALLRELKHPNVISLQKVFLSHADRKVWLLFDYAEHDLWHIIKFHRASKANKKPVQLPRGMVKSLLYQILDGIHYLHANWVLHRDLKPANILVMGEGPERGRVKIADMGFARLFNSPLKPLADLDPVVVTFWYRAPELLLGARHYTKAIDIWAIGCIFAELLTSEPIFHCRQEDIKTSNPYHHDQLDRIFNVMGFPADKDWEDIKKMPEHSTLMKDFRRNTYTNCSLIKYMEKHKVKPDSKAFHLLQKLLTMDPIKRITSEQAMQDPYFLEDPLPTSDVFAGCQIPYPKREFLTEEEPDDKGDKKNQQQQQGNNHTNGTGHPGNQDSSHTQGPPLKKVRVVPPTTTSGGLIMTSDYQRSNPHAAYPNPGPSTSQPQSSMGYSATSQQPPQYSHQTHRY
Chain of CDK3 (P24864 whole entry): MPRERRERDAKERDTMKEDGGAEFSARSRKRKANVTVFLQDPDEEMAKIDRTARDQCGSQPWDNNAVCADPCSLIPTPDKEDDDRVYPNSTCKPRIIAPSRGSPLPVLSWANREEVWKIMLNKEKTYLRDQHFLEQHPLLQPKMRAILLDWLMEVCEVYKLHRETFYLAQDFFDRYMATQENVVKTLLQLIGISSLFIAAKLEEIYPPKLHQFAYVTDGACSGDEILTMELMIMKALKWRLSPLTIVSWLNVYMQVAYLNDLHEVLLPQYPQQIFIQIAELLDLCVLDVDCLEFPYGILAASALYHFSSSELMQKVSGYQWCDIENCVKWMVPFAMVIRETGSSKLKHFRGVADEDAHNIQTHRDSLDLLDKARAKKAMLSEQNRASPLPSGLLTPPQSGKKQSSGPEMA
Chain of CDK3 (Q00526 whole entry): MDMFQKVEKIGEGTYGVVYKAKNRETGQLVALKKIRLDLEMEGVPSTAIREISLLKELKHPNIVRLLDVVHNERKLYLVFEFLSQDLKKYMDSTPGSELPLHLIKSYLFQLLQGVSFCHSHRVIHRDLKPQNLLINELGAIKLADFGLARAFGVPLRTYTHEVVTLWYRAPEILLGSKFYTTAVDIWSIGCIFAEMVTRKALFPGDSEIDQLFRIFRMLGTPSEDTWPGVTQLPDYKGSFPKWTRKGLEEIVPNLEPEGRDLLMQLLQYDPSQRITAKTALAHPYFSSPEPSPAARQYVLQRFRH
Chain of Chitinase 1 (CHIT1) (Q13231 22-466): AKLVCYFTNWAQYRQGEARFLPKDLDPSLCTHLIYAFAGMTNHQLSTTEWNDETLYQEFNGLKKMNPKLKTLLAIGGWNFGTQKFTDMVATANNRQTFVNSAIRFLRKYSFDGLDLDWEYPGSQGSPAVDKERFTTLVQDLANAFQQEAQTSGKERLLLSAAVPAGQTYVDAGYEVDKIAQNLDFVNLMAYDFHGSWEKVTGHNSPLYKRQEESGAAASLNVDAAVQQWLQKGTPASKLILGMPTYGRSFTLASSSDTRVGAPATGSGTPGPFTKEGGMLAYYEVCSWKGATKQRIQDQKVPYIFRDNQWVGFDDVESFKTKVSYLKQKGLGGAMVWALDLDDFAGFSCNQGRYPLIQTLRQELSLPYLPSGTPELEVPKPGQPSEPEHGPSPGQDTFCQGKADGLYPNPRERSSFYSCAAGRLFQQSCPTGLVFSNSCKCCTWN
Chain of CDK4 (P11802 whole entry, species assumed): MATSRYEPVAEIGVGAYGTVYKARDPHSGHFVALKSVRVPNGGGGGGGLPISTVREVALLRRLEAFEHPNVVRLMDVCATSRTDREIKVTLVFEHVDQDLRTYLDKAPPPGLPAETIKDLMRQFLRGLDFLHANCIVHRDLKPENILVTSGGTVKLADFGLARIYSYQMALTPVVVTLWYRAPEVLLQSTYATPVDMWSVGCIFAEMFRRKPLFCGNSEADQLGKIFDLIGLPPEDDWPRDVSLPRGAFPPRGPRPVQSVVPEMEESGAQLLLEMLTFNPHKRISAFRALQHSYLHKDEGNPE
Chain of CDK4 (P24385 whole entry partner, species assumed): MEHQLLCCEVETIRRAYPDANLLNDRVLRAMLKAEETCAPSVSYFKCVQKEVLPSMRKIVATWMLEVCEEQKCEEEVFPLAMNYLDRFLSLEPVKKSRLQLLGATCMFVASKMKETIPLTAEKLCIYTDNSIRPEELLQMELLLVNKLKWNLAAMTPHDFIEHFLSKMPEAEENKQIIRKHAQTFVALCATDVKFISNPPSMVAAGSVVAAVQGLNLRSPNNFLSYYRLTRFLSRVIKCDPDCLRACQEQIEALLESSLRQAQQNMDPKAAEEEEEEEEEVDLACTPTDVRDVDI
Chain of CDK1 (P06493 whole entry, species assumed): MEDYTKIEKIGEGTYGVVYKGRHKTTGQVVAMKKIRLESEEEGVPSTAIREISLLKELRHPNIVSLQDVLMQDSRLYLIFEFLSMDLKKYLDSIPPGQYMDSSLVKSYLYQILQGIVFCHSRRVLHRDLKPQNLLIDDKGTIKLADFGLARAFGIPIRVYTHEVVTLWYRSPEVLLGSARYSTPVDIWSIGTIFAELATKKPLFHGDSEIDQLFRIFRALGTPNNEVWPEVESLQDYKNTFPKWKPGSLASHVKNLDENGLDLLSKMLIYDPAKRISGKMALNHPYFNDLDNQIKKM
Chain of CDK1 (P14635 whole entry partner, species assumed): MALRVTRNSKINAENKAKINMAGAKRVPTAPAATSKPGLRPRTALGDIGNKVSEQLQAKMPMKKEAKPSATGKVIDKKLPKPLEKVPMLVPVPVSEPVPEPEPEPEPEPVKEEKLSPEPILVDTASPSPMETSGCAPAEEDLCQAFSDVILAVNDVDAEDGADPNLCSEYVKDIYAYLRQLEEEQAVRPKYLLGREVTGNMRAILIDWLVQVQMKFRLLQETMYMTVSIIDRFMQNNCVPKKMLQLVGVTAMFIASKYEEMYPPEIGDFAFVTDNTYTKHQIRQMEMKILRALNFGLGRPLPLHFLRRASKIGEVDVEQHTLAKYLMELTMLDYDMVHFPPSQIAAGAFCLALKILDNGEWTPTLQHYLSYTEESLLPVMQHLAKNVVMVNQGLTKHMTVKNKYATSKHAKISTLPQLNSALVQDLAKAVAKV

For `CN1CC[C@H](c2c(O)cc(O)c3c(=O)cc(-c4ccccc4Cl)oc23)[C@H](O)C1` [Flavopiridol HCl, Flavopiridol Hydrochloride], the “Inhibitory potency CDK1” value in test [1] was “+++”. Also, the “Inhibitory potency CDK7” value in test [2] is recorded as “+”. For the same molecule, the “Inhibitory potency CDK4” value in [3] was “+++”. In test [4], the “Inhibitory potency CDK3” value is given as “+”. The “Inhibitory potency CDK6” value in [5] is recorded as “+++”. The “Inhibitory potency CDK2” value in test [6] was “+++”.

Take `C[C@H]1O[C@H](O[C@H]2[C@H](O)[C@@H](O)[C@@H](O)[C@H](O)[C@@H]2O)[C@@H](N)C[C@@H]1NC(=N)C(=O)O` [Kasugamycin, 2-amino-2-[(2R,3S,5S,6R)-5-amino-2-methyl-6-[(2R,3S,5S,6S)-2,3,4,5,6-pentahydroxycyclohexyl]oxyoxan-3-yl]iminoacetic acid]: the rCHI3L1-augmented pseudovirus uptake entry in test [7] is “abrogated”. For the same molecule, in test [8], the “pseudovirus uptake when exogenous CHI3L1 was not administered” value is recorded as “diminished”. In addition, the “CHI3L1 stimulated MAPK and AKT activation” value in [9] was “abrogated”. For the same molecule, in test [10], the “ability of rhCHI3L1 to stimulate ACE2 mRNA accumulation” value is on record as “potently inhibited; also recorded: potently ameliorated” and the “levels of basal ACE2 expression” value was “diminished”. Besides, the “anti-Chitinase 1 (CHIT1) activities” value in test [11] is given as “strong”. Also, the “basal and rhCHI3L1-stimulated expression of TMPRSS2, CTSL and FURIN” value in [12] was “potently decreased”. The “influenza and other viral infections” value in test [13] was “inhibit”.

Consider LY2857785, for which the “Inhibitory potency CDK7” value in test [2] is listed as “+”. Also, in [14], the “Inhibitory potency CDK9” value is listed as “+++”. Moreover, the “Inhibitory potency CDK8” value in test [15] was “+++”.

B1: FRG: murine monoclonal anti-CHI3L1 antibody raised against amino acid 223-234 of human CHI3L1; heavy chain SEQ ID NO: 13, light chain SEQ ID NO: 14 (antibody, V domains shown)
VH: QIQLVQSGPELKKPGETVKISCKASGYTFTNYGMNWVKQAPGKGLKWMGWINTYTGEPTYADDFKGRFAFSLETSASTAYLQINNLRNEDMSTYFCARLGYGKFYVMDYWGQGTSVTVSS
VL: DVVMTQTPLSLPVSLGDQASISCRSSQSLVHSNGNTYLHWYLQKPGQSPKLLIYKVSNRFSGVPDRFSGSGSGTDFTLKISRVEAEDLGVYFCSQSTHVTWTFGGGTKLEIK
Take B1: in test [7], the “pseudovirus uptake when exogenous rCHI3L1 was not administered” value is reported as “diminished” and the rCHI3L1-augmented pseudovirus uptake result is “abrogated”. Further, in test [8], the “pseudovirus uptake when exogenous CHI3L1 was not administered” value is listed as “diminished”. For the same molecule, the “CHI3L1 effect on cellular integration of S proteins” value in [16] is “abrogated”. Moreover, in [10] (setting [20]), the “levels of basal ACE2 expression” value was “modestly diminished”. For the same molecule, the “ability of rhCHI3L1 to stimulate ACE2 mRNA accumulation” value in [10] (Calu-3 cells, rhCHI3L1 24 hours, FRG or KSM 250 ng/mL, RT-PCR) was “potently inhibited; also recorded: potently ameliorated”. For the same molecule, in test [17], the “expression of ACE2” value was “abrogated”. In test [18], the delta pseudovirus infection entry was “abrogated”. Further, the “basal and rhCHI3L1-stimulated expression of TMPRSS2, CTSL and FURIN” value in test [12] (setting [20]) was “potently decreased”. In addition, the Kd in test [19] is approximately 1.1 nM.

One may read the Kd as the equilibrium constant for the complex coming apart.
